These results are taken from article PMC9814781, “Structure-based design of a dual-warhead covalent inhibitor of FGFR4” (Communications Chemistry, 2022).

The test system of data set [1] is FGFR4(C552A) mutant. Particulars: cited from earlier work.
Data set [2] concerns the target FGFR1 (Homo sapiens, UniProt P11362). Description: MALDI-TOF MS covalent binding.
Description: The N-terminal of the recombinant proteins were contained a 6xHis tag followed by a PreScission cleavage site for FGFR1, FGFR2, FGFR3, and FGFR4. […] The proteins were first purified by Ni-NTA affinity chromatography. The 6 × His tag was removed by PreScission protease. Then, anion exchange chromatography (Mono Q) and size exclusion chromatography (if necessary) were exploited for further purification. The target proteins were concentrated to ~5–15 mg/mL and flash frozen for storage at −80°C for subsequent studies.
For data set [3], the target named is T1, FGFR4(C552A) (Homo sapiens, UniProt P22455, C552A).
T1 construct: FGFR4 (residues 445–753); 6xHis + PreScission site (N, cleaved yes); made in house; host or cells: Escherichia coli Rosseta
Description: MALDI-TOF MS covalent binding. On the procedure: (§1) Wild-type FGFRs and mutant FGFRs were prepared as previously described[25]–[27]. […] The N-terminal of the recombinant proteins were contained a 6xHis tag followed by a PreScission cleavage site for FGFR1, FGFR2, FGFR3, and FGFR4. Site-directed mutagenesis of FGFR4 was generated according to the ClonExpress II One Step Cloning Kit (Vazyme) using the pET28a-FGFR4 plasmid as the template. […] For crystallization experiments, the wild-type FGFR4 plasmid was co-expressed with untagged YOPH to obtain non-phosphorylated proteins. The proteins were first purified by Ni-NTA affinity chromatography. The 6 × His tag was removed by PreScission protease. Then, anion exchange chromatography (Mono Q) and size exclusion chromatography (if necessary) were exploited for further purification. The target proteins were concentrated to ~5–15 mg/mL and flash frozen for storage at −80°C for subsequent studies.

The target of data set [4] is T2, FGFR4 (Homo sapiens, UniProt P22455).
T2 construct: purchased ICE Bioscience
Description: MALDI-TOF MS covalent binding. The procedure:
as §1

The target in data set [5] is T3, FGFR4(C477A) (Homo sapiens, UniProt P22455, C477A).
T3 construct: FGFR4 (residues 445–753); 6xHis + PreScission site (N, cleaved yes); made in house; host or cells: Escherichia coli Rosseta
Description: MALDI-TOF MS covalent binding. On the procedure: as §1

Data set [6] can be described thus: GSH reaction assay. Type of data set: in vitro ADME. Particulars: GSH 5 mM, inhibitor 1 mM, 37°C, 10–60 min. The procedure:
GSH (5 mM) and inhibitor (1 mM) or DMSO control were mixed in equal volumes and reacted at 37°C for 10 min, 20 min, 30 min, 40 min, 50 min, and 60 min. The remaining GSH was detected with DTNB (Beyotime, China), and the absorption light was measured at 412 nm on a plate reader (Perkin-Elmer). Data were determined using the time (min) versus % of control in Origin 2018 software.

T3 sequence (P22455 445-753 C477A): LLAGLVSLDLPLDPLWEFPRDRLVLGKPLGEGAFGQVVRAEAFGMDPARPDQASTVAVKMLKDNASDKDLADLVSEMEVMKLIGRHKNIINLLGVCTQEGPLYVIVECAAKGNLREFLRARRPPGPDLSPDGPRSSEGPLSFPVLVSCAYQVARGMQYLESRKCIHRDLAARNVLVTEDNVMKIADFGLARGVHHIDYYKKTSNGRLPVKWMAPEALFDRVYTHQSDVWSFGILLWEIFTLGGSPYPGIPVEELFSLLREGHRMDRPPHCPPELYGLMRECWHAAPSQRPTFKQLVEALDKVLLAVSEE
T1 sequence (P22455 445-753 C552A): as the sequence (P22455 445-753 C477A) above, with A33C, C108A counted along it
T2 sequence (P22455 22-802): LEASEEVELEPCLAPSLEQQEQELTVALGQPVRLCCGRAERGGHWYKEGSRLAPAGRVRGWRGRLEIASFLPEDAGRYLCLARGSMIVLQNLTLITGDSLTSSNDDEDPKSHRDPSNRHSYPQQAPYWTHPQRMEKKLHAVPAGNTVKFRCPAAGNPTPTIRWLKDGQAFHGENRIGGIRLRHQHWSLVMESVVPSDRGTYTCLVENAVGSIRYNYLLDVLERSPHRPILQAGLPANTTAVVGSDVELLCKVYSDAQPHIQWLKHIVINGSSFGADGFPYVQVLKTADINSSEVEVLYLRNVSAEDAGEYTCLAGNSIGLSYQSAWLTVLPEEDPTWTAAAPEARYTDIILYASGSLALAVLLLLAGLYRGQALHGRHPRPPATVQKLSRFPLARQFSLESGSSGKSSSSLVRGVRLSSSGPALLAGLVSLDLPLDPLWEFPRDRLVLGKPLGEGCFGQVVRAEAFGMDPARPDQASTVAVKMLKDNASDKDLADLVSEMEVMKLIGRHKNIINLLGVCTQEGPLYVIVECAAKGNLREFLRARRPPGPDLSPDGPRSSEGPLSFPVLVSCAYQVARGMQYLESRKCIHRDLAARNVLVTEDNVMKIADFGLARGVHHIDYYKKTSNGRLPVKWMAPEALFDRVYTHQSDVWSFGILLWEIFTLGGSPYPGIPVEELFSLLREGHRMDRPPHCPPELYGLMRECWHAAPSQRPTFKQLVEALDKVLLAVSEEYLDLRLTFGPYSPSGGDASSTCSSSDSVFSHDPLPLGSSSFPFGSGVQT
Sequence of FGFR1 (P11362 22-822): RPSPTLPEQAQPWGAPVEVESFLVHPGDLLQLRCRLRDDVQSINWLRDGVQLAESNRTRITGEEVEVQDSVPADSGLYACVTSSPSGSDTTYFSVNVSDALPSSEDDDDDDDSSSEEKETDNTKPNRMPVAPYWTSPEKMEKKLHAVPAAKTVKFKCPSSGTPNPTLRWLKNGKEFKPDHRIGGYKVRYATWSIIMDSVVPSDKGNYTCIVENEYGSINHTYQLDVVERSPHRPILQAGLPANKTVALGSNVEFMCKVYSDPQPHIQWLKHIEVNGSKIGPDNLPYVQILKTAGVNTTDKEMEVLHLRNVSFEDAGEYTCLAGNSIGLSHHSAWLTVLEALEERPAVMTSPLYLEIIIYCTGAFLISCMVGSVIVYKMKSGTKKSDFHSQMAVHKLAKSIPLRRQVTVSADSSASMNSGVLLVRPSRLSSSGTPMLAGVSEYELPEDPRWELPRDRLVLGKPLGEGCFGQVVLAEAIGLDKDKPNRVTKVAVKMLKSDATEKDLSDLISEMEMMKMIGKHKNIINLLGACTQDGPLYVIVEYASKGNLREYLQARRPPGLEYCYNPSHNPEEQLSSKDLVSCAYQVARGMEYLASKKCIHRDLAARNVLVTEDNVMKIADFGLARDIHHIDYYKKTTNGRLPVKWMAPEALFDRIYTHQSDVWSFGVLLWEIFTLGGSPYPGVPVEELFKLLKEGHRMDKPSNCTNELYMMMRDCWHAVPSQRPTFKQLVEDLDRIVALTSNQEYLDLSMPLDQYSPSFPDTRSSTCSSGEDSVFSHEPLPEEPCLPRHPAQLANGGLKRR

Broadly, the IC50 is the point on the concentration scale where inhibition reaches its midpoint. Regarding `C=CC(=O)N[C@H]1CCOC[C@H]1Nc1ncc2cc(-c3c(Cl)c(OC)cc(OC)c3Cl)ccc2n1` [BLU554], in data set [1], the half-inhibitory concentration (IC50) is over 10 µM.

For `C=CC(=O)Nc1cccc(C)c1Nc1ncc2c(n1)N(CCCN1CCN(C(=O)C=C)CC1)C(=O)N(c1cc(OC)cc(OC)c1)C2` [CXF-008], the “covalent bond formation (mass shift)” value in data set [2] is “forms a covalent bond with FGFR1”; in data set [3], “not with FGFR4(C552A)”; in data set [4] it was “only forms one covalent bond with Cys552 of FGFR4”; in data set [5] it was “forms a covalent bond with FGFR4(C477A)”. With `COCCNc1cc(NC(=O)N2CCCc3cc(CN4CCN(C)CC4=O)c(C=O)nc32)ncc1C#N` [FGF401], in data set [1], the IC50 is […].

In the case of `C=CC(=O)N1CCN(CCCn2c(=O)c(-c3c(Cl)c(OC)cc(OC)c3Cl)cc3cnc(NC)nc32)CC1` [PRN1371, 8-(3-(4-Acryloylpiperazin-1-yl)propyl)-6-(2,6-dichloro-3,5-dimethoxyphenyl)-2-(methylamino)pyrido[2,3-d]pyrimidin-7(8H)-one, reference compound], in data set [6], the “GSH reactivity (remaining GSH, DTNB)” value was “time-dependent decrease in GSH”.
